In this experiment the target is T1, FAAH (Rattus norvegicus, UniProt P97612).
T1 construct: Preparation of Rat Brain Membranes Preparations (FAAH Enzyme Solution); from tissue; host or cells: rat cerebrum (brain membrane preparation)
T1 sequence (P97612 1-579): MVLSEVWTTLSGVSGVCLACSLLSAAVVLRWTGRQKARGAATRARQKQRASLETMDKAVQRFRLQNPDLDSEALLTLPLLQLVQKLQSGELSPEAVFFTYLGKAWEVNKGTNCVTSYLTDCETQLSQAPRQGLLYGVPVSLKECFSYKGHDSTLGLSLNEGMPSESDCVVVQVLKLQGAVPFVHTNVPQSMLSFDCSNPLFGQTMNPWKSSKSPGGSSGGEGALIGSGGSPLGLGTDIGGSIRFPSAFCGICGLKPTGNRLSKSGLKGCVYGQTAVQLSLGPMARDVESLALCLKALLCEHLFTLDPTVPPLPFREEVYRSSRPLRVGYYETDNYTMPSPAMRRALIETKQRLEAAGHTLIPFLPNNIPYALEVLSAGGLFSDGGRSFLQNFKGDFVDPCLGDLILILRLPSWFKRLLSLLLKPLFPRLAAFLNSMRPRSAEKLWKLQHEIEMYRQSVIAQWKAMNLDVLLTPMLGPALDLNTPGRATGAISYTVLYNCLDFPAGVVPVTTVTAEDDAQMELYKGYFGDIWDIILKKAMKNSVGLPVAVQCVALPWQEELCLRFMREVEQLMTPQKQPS
Briefly: Determination of FAAH inhibitory activity in rat (rat brain membrane preparations, [3H]-anandamide hydrolysis). Type of experiment: biochemical. Conditions: for inhibition at 0.1 µM: read-out: FAAH Inhibition, Inhibition Rate at 100 nM; for IC50: test substance 0.1 nM to 1 μM, read-out: FAAH Inhibition IC50. The method, then: Determination of FAAH Inhibitory Activity in Rat
The preparation of rat brain membranes preparations and the determination of FAAH inhibitory activity were carried out according to the Jonsson et al. method [Br. J. Pharmacol., 133, 1263 (2001)].
(1) Preparation of Rat Brain Membranes Preparations (FAAH Enzyme Solution)
The cerebrum was extracted from rats and was freeze-stored at −80° C. To the frozen cerebrum was added 4° C. enzyme homogenization buffer (20 mM HEPES-buffer pH 7.0, 1 mM MgCl2) and the mixture was homogenized using a homogenizer in ice and the homogenates were centrifuged (36,000×g for 20 minutes). After repeating operations of homogenization and centrifugation, the tissue pellets were re-suspended with 4° C. enzyme homogenization buffer. The re-suspensions were incubated at 37° C. for 15 minutes and were centrifuged (36,000×g for 20 minutes), and the resulting tissue membranes were then re-suspended with enzyme solution preparation buffer (50 mM Tris-HCl buffer pH 7.4, 1 mM EDTA, 3 mM MgCl2). The protein concentration in the resulting membrane preparations were determined according to a colorimetry method (BCA Protein Assay: Pierce Inc.) and the preparations were freeze-stored at −80° C. until used for assay.
(2) Screening of Substances for Inhibiting FAAH Activity
To the above membrane preparations (final concentration 100 μg/mL) were added a solution of test substances in DMSO (final concentration in DMSO 1%) and an assay buffer (for final preparation; 22 mM Tris-HCl (pH 7.6), 1.4 mM EDTA, 1.5% BSA, 0.6 mM MgCl2) and the resulting mixtures were preincubated at 37° C. for 10 minutes. Thereto was added a substrate solution (for final preparation; 2 nM [^3H]-Anandamide (American Radiolabeled Chemicals Inc.)+2 μM Anandamide (Sigma-Aldrich Co.)) (final assay volume of 200 μL) and the resulting mixtures were incubated at 37° C. for 10 minutes. Here in control experiment, DMSO was added instead of the solution of test substance in DMSO. Also in blank experiment, DMSO was added instead of the solution of test substance in DMSO and an enzyme solution preparation buffer was also added instead of the membrane preparations. After the incubation, thereto was added a 400 μL ice-cooled solution of chloroform and methanol (1:1 ratio by volume) and the resulting mixtures were stirred. An ethanolamine (ethanolamine-1-[^3H]) as a decomposed product was separated into an upper layer (water/methanol layer) by centrifugation (1,000×g for 10 minutes). The upper layer 200 μL was transferred into 96 well Deepwell Luma Plate-96 (PerkinElmer Inc.) and the radioactivity was measured by microplate scintillation counter (TopCount NXT™: […].). The substances showing a lower measured value compared to those of control were selected as the compound having a FAAH inhibitory activity.
(3) Determination of IC50 Value
The test substances were prepared such that the final concentration of the compounds is within the range of 0.1 nM to 1 μM and were then examined on the effect on FAAH activity according to the above-mentioned protocol.

Setting [1] is: rat brain membrane preparations, 100 nM test substance.
Where [2] appears, read: rat brain membrane preparations.

The structures appear in SMILES notation. Where two headings read alike, the source gives them in different places.

A word on the inhibition: it is the change of the read-out against control, counted positive when it falls. The term IC50 denotes the point on the concentration scale where inhibition reaches its midpoint. With `Cn1c(=O)n(C(=O)N2CCCC2)c2cnc(/C=C/c3ccccc3)nc21` [Example 1, 9-methyl-2-[(E)-2-phenylethenyl]-7-(pyrrolidin-1-ylcarbonyl)-7,9-dihydro-8H-purine-8-one], the inhibition at 0.1 µM under setting [1] is 100%. The IC50 under setting [2] worked out at 6 nM.
The like results for `CCN(C)C(=O)n1c(=O)n(C)c2nc(-c3ccccc3)ncc21` [Example 2, N-ethyl-N,9-dimethyl-8-oxo-2-phenyl-8,9-dihydro-7H-purine-7-carboxamide] were, in that order, 99% and 10 nM.
The like results for `COc1ccc(/C=C/c2ncc3c(n2)n(C)c(=O)n3C(=O)N2CCCC2)cc1` [Example 4, 2-[(E)-2-(4-Methoxyphenyl)ethenyl]-9-methyl-7-(pyrrolidin-1-ylcarbonyl)-7,9-dihydro-8H-purine-8-one] were, in that order, 99% and 10 nM.
As to `Cn1c(=O)n(C(=O)N2CCCC2)c2cnc(/C=C/c3ccc(F)cc3)nc21` [Example 5, 2-[(E)-2-(4-Fluorophenyl)ethenyl]-9-methyl-7-(pyrrolidin-1-ylcarbonyl)-7,9-dihydro-8H-purine-8-one], the inhibition at 0.1 µM under setting [1] is 98%. Moreover, under setting [2], the IC50 amounted to 15 nM.
With `Cn1c(=O)n(C(=O)N2CCCC2)c2cnc(/C=C/c3ccc(Cl)cc3)nc21` [Example 8, 2-[(E)-2-(4-Chlorophenyl)ethenyl]-9-methyl-7-(pyrrolidin-1-ylcarbonyl)-7,9-dihydro-8H-purine-8-one], the inhibition at 0.1 µM under setting [1] is 87%. Besides, the IC50 under setting [2] amounted to 57 nM.
Take `Cc1ccc(/C=C/c2ncc3c(n2)n(C)c(=O)n3C(=O)N2CCCC2)cc1` [Example 9, 9-Methyl-2-[(E)-2-(4-methylphenyl)ethenyl]-7-(pyrrolidin-1-ylcarbonyl)-7,9-dihydro-8H-purine-8-one]: the inhibition at 0.1 µM under setting [1] came out at 92%. Under setting [2], the IC50 was determined as 47 nM.
Take `Cn1c(=O)n(C(=O)N2CCCC2)c2cnc(CCc3ccccc3)nc21` [Example 11, 9-Methyl-2-(2-phenylethyl)-7-(pyrrolidin-1-ylcarbonyl)-7,9-dihydro-8H-purine-8-one]: under setting [1], the inhibition at 0.1 µM is 79%. For the same compound, the 50% inhibitory concentration (IC50) under setting [2] came out at 66 nM.
The like results for `COc1ccc(CCc2ncc3c(n2)n(C)c(=O)n3C(=O)N2CCCC2)cc1` [Example 12, 2-[2-(4-Methoxyphenyl)ethyl]-9-methyl-7-(pyrrolidin-1-ylcarbonyl)-7,9-dihydro-8H-purine-8-one] were, in that order, 93% and 46 nM.
The like results for `Cn1c(=O)n(C(=O)N2CCCC2)c2cnc(-c3ccccc3)nc21` [Example 16, 9-Methyl-2-phenyl-7-(pyrrolidin-1-ylcarbonyl)-7,9-dihydro-8H-purine-8-one] were, in that order, 100% and 7 nM.
The like results for `Cn1c(=O)n(C(=O)N2CCCC2)c2cnc(-c3cccc(Cl)c3)nc21` [Example 17] were, in that order, 101% and 8 nM.
In the case of `Cn1c(=O)n(C(=O)N2CCCC2)c2cnc(-c3ccc(Cl)cc3)nc21` [Example 18], under setting [1], the inhibition at 0.1 µM was found to be 99%. Also, the IC50 under setting [2] stood at 7 nM.
Turning to `Cn1c(=O)n(C(=O)N2CCCC2)c2cnc(Cc3cccc(Cl)c3)nc21` [Example 19, 2-(3-Chlorobenzyl)-9-methyl-7-(pyrrolidin-1-ylcarbonyl)-7,9-dihydro-8H-purine-8-one], the inhibition at 0.1 µM under setting [1] was 99%. In addition, the IC50 under setting [2] is 9 nM.
The like results for `Cn1c(=O)n(C(=O)N2CCCC2)c2cnc(Cc3ccc(Cl)cc3)nc21` [Example 20, 2-(4-Chlorobenzyl)-9-methyl-7-(pyrrolidin-1-ylcarbonyl)-7,9-dihydro-8H-purine-8-one] were, in that order, 95% and 40 nM.
The like results for `Cn1c(=O)n(C(=O)N2CCCC2)c2cnc(CCCc3ccccc3)nc21` [Example 21] were, in that order, 57% and 84 nM.
The like results for `CN(C)C(=O)n1c(=O)n(C)c2nc(-c3ccccc3)ncc21` [Example 22] were, in that order, 102% and 12 nM.
As to `Cn1c(=O)n(C(=O)N2CCC2)c2cnc(-c3ccccc3)nc21` [Example 23, 7-(Azetidin-1-ylcarbonyl)-9-methyl-2-phenyl-7,9-dihydro-8H-purine-8-one], the inhibition at 0.1 µM under setting [1] is 102%. Further, the half-inhibitory concentration (IC50) under setting [2] was found to be 5 nM.
The like results for `Cn1c(=O)n(C(=O)N2CCCCC2)c2cnc(-c3ccccc3)nc21` [Example 24, 9-Methyl-2-phenyl-7-(piperidin-1-ylcarbonyl)-7,9-dihydro-8H-purine-8-one] were, in that order, 97% and 29 nM.
Take `CN1CCN(C(=O)n2c(=O)n(C)c3nc(-c4ccccc4)ncc32)CC1` [Example 26]: under setting [1], the inhibition at 0.1 µM worked out at 38%. In addition, the IC50 under setting [2] is over 100 nM.
The like results for `CN(C(=O)n1c(=O)n(C)c2nc(-c3ccccc3)ncc21)c1ccccc1` [Example 27] were, in that order, 76% and 63 nM.
With `COC[C@H]1CCCN1C(=O)n1c(=O)n(C)c2nc(-c3ccccc3)ncc21` [Example 29], under setting [1], the inhibition at 0.1 µM was determined as 67%. Further, the IC50 under setting [2] was 75 nM.
The like results for `Cn1c(=O)n(C(=O)N2CCC(c3ccccc3)CC2)c2cnc(-c3ccccc3)nc21` [Example 33, 9-Methyl-2-phenyl-7-[(4-phenylpiperidin-1-yl)carbonyl]-7,9-dihydro-8H-purine-8-one] were, in that order, 91% and 47 nM.
As to `CN(Cc1ccccc1)C(=O)n1c(=O)n(C)c2nc(-c3ccccc3)ncc21` [Example 34, N-Benzyl-N,9-dimethyl-8-oxo-2-phenyl-8,9-dihydro-7H-purine-7-carboxamide], the inhibition at 0.1 µM under setting [1] came to 101%. Besides, the half-maximal inhibitory concentration (IC50) under setting [2] worked out at 23 nM.
As to `CN(CCCc1ccccc1)C(=O)n1c(=O)n(C)c2nc(-c3ccccc3)ncc21` [Example 35, N,9-Dimethyl-8-oxo-2-phenyl-N-(3-phenylpropyl)-8,9-dihydro-7H-purine-7-carboxamide], the inhibition at 0.1 µM stood at 100%. For the same compound, the IC50 under setting [2] was 8 nM.
In the case of `CN(CCCCc1ccccc1)C(=O)n1c(=O)n(C)c2nc(-c3ccccc3)ncc21` [Example 36, N,9-Dimethyl-8-oxo-2-phenyl-N-(4-phenylbutyl)-8,9-dihydro-7H-purine-7-carboxamide], under setting [1], the inhibition at 0.1 µM worked out at 98%. The IC50 under setting [2] worked out at 7 nM.
The like results for `CCOC(=O)CN(C)C(=O)n1c(=O)n(C)c2nc(-c3ccccc3)ncc21` [Example 37, Ethyl N-methyl-N-[(9-methyl-8-oxo-2-phenyl-8,9-dihydro-7H-purin-7-yl)carbonyl]glycinate] were, in that order, 91% and 46 nM.
The like results for `COC(=O)CN(C)C(=O)n1c(=O)n(C)c2nc(-c3ccccc3)ncc21` [Example 38] were, in that order, 73% and 76 nM.
The like results for `COCCN(C)C(=O)n1c(=O)n(C)c2nc(-c3ccccc3)ncc21` [Example 39, N-(2-Methoxyethyl)-N,9-dimethyl-8-oxo-2-phenyl-8,9-dihydro-7H-purine-7-carboxamide] were, in that order, 98% and 43 nM.

These data come from patent publication US8735406B2, “8-oxodihydropurine derivative” (Dainippon Sumitomo Pharma Co., Ltd., priority 2009, dated 2014).
